Test results: patent US7772241B2, “Variolin derivatives and their use as antitumor agents” (Pharma Mar S.A., priority 2001, dated 2010)

Key:
K-562 = assay: Inhibition of cells growth by colorimetric (SRB) assay, K-562; conditions: for GI50 / CC50: Homo sapiens, K562, 48 h; for GI50: read-out: GI50 K-562, SRB assay, 48 hours exposure; for CC50: read-out: LC50 K-562, SRB assay, 48 hours exposure; for TGI K-562: SRB assay, 48 hours exposure
Outline: (§1)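 Human tumour cells in RPMI 1640 with 10% FBS were seeded at 5×10^3 cells/well, allowed to attach for 18 h, then exposed to samples at 10 to 10^−8 μg/ml for 48 h. Growth was measured by SRB staining after TCA fixation, with absorbance read at 490 nm in triplicate wells.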

A-549 = assay: Inhibition of cells growth by colorimetric (SRB) assay, A-549; conditions: for GI50 / CC50: Homo sapiens, A549, 48 h; for GI50: read-out: GI50 A-549, SRB assay, 48 hours exposure; for CC50: read-out: LC50 A-549, SRB assay, 48 hours exposure; for TGI A-549: SRB assay, 48 hours exposure
Outline: as §1

SK-MEL-28 = assay: Inhibition of cells growth by colorimetric (SRB) assay, SK-MEL-28; conditions: for GI50 / CC50: Homo sapiens, SK-MEL-28, 48 h; for GI50: read-out: GI50 MEL-28, SRB assay, 48 hours exposure; for CC50: read-out: LC50 MEL-28, SRB assay, 48 hours exposure; for TGI MEL-28: SRB assay, 48 hours exposure
Outline: as §1

HT-29 = assay: Inhibition of cells growth by colorimetric (SRB) assay, HT-29; conditions: for GI50 / CC50: Homo sapiens, HT-29, 48 h; for GI50: read-out: GI50 HT-29, SRB assay, 48 hours exposure; for CC50: read-out: LC50 HT-29, SRB assay, 48 hours exposure; for TGI HT-29: SRB assay, 48 hours exposure
Outline: as §1

LoVo = assay: Inhibition of cells growth by colorimetric (SRB) assay, LoVo; conditions: for GI50 / CC50: Homo sapiens, LoVo, 48 h; for GI50: read-out: GI50 LOVO, SRB assay, 48 hours exposure; for CC50: read-out: LC50 LOVO, SRB assay, 48 hours exposure; for TGI LOVO: SRB assay, 48 hours exposure
Outline: as §1

LoVo-Dox = assay: Inhibition of cells growth by colorimetric (SRB) assay, LoVo-Dox; conditions: for GI50 / CC50: Homo sapiens, 48 h; for GI50: read-out: GI50 LOVO-DOX, SRB assay, 48 hours exposure; for CC50: read-out: LC50 LOVO-DOX, SRB assay, 48 hours exposure; for TGI LOVO-DOX: SRB assay, 48 hours exposure
Outline: as §1

DU-145 = assay: Inhibition of cells growth by colorimetric (SRB) assay, DU-145; conditions: for GI50 / CC50: Homo sapiens, DU-145, 48 h; for GI50: read-out: GI50 DU-145, SRB assay, 48 hours exposure; for CC50: read-out: LC50 DU-145, SRB assay, 48 hours exposure; for TGI DU-145: SRB assay, 48 hours exposure
Outline: as §1

LNCaP = assay: Inhibition of cells growth by colorimetric (SRB) assay, LNCaP; conditions: for GI50 / CC50: Homo sapiens, LNCaP, 48 h; for GI50: read-out: GI50 LN-caP, SRB assay, 48 hours exposure; for CC50: read-out: LC50 LN-caP, SRB assay, 48 hours exposure; for TGI LN-caP: SRB assay, 48 hours exposure
Outline: as §1

SK-BR-3 = assay: Inhibition of cells growth by colorimetric (SRB) assay, SK-BR-3; conditions: for GI50 / CC50: Homo sapiens, SK-BR-3, 48 h; for GI50: read-out: GI50 SK-BR-3, SRB assay, 48 hours exposure; for CC50: read-out: LC50 SK-BR-3, SRB assay, 48 hours exposure; for TGI SK-BR-3: SRB assay, 48 hours exposure
Outline: as §1

IGROV-1 = assay: Inhibition of cells growth by colorimetric (SRB) assay, IGROV-1; conditions: for GI50 / CC50: Homo sapiens, IGROV-1, 48 h; for GI50: read-out: GI50 IGROV, SRB assay, 48 hours exposure; for CC50: read-out: LC50 IGROV, SRB assay, 48 hours exposure; for TGI IGROV: SRB assay, 48 hours exposure
Outline: as §1

IGROV-ET = assay: Inhibition of cells growth by colorimetric (SRB) assay, IGROV-ET; conditions: for GI50 / CC50: Homo sapiens, 48 h; for GI50: read-out: GI50 IGROV-ET, SRB assay, 48 hours exposure; for CC50: read-out: LC50 IGROV-ET, SRB assay, 48 hours exposure; for TGI IGROV-ET: SRB assay, 48 hours exposure
Outline: as §1

SK-OV-3 = assay: Inhibition of cells growth by colorimetric (SRB) assay, SK-OV-3; conditions: for GI50 / CC50: Homo sapiens, SK-OV-3, 48 h; for GI50: read-out: GI50 SKOV-3, SRB assay, 48 hours exposure; for CC50: read-out: LC50 SKOV-3, SRB assay, 48 hours exposure; for TGI SKOV-3: SRB assay, 48 hours exposure
Outline: as §1

PANC-1 = assay: Inhibition of cells growth by colorimetric (SRB) assay, PANC-1; conditions: for GI50 / CC50: Homo sapiens, PANC-1, 48 h; for GI50: read-out: GI50 PANC-1, SRB assay, 48 hours exposure; for CC50: read-out: LC50 PANC-1, SRB assay, 48 hours exposure; for TGI PANC-1: SRB assay, 48 hours exposure
Outline: as §1

[1] = Inhibition of cells growth by colorimetric (SRB) assay, HMEC1; conditions: human, HMEC1 cells, LC50 H-MEC-1, SRB assay, 48 hours exposure
HMEC1 = assay: as above; conditions: for GI50: Homo sapiens, HMEC-1, 48 h, read-out: GI50 H-MEC-1, SRB assay, 48 hours exposure; for TGI H-MEC-1: SRB assay, 48 hours exposure, in M (unit assumed)

For `C[S+]([O-])c1nccc(-c2c3c(Cl)ccnc3n3c(N)nccc23)n1` (stereo not drawn) [Compound 110], the GI50 (K-562) was 9.92 µM, the CC50 (K-562) was no less than 27.9 µM and the “TGI K-562” value (K-562) was 2.79E−05. For the same molecule, the GI50 (A-549) was 11 µM, the CC50 (A-549) was no less than 27.9 µM and the “TGI A-549” value (A-549) was 2.79E−05. For the same molecule, the GI50 (SK-MEL-28) was 5.55 µM, the CC50 (SK-MEL-28) was no less than 27.9 µM and the “TGI MEL-28” value (SK-MEL-28) was 2.79E−05. For the same molecule, the GI50 (HT-29) was 4.15 µM, the CC50 (HT-29) was no less than 27.9 µM and the “TGI HT-29” value (HT-29) was 2.79E−05. The GI50 (LoVo) was 1.38 µM, the CC50 (LoVo) was no less than 27.9 µM and the “TGI LOVO” value (LoVo) was 6.21E−06. The GI50 (LoVo-Dox) was 2.04 µM, the CC50 (LoVo-Dox) was no less than 27.9 µM and the “TGI LOVO-DOX” value (LoVo-Dox) was 1.21E−05. For the same molecule, the GI50 (DU-145) was 2.03 µM, the CC50 (DU-145) was no less than 27.9 µM and the “TGI DU-145” value (DU-145) was 8.97E−06. For the same molecule, the GI50 (LNCaP) was 1.45 µM, the CC50 (LNCaP) was 16.7 µM and the “TGI LN-caP” value (LNCaP) was 4.71E−06. For the same molecule, the GI50 (SK-BR-3) was 0.92 µM, the CC50 (SK-BR-3) was 11.6 µM and the “TGI SK-BR-3” value (SK-BR-3) was 1.98E−06. For the same molecule, the GI50 (IGROV-1) was 14.3 µM, the CC50 (IGROV-1) was no less than 27.9 µM and the “TGI IGROV” value (IGROV-1) was 2.79E−05. For the same molecule, the GI50 (IGROV-ET) was 10.9 µM, the CC50 (IGROV-ET) was no less than 27.9 µM and the “TGI IGROV-ET” value (IGROV-ET) was 2.79E−05. The GI50 (SK-OV-3) was 11.9 µM, the CC50 (SK-OV-3) was no less than 27.9 µM and the “TGI SKOV-3” value (SK-OV-3) was 2.79E−05. For the same molecule, the GI50 (PANC-1) was 14.5 µM, the CC50 (PANC-1) was no less than 27.9 µM and the “TGI PANC-1” value (PANC-1) was 2.79E−05. The CC50 at 48 h [1] was no less than 27.9 µM, the GI50 (HMEC1) was 1.7 µM and the “TGI H-MEC-1” value (HMEC1) was 1.08E−05.

For `CS(=O)(=O)c1nccc(-c2c3c(Cl)ccnc3n3c(N)nccc23)n1` [Compound 111], the GI50 (K-562) was 7.26 µM, the CC50 (K-562) was 26.7 µM and the “TGI K-562” value (K-562) was 1.59E−05. The GI50 (A-549) was 4.35 µM, the CC50 (A-549) was 26.7 µM and the “TGI A-549” value (A-549) was 1.30E−05. For the same molecule, the GI50 (SK-MEL-28) was 1.25 µM, the CC50 (SK-MEL-28) was 15.7 µM and the “TGI MEL-28” value (SK-MEL-28) was 5.15E−06. The GI50 (HT-29) was 5.34 µM, the CC50 (HT-29) was 26.7 µM and the “TGI HT-29” value (HT-29) was 1.66E−05. For the same molecule, the GI50 (LoVo) was 1.54 µM, the CC50 (LoVo) was 26.7 µM and the “TGI LOVO” value (LoVo) was 6.99E−06. For the same molecule, the GI50 (LoVo-Dox) was 1.51 µM, the CC50 (LoVo-Dox) was 26.7 µM and the “TGI LOVO-DOX” value (LoVo-Dox) was 7.07E−06. The GI50 (DU-145) was 1.94 µM, the CC50 (DU-145) was 16.8 µM and the “TGI DU-145” value (DU-145) was 6.40E−06. For the same molecule, the GI50 (LNCaP) was 4.3 µM, the CC50 (LNCaP) was 19.9 µM and the “TGI LN-caP” value (LNCaP) was 9.26E−06. For the same molecule, the GI50 (SK-BR-3) was 4.35 µM, the CC50 (SK-BR-3) was 21.3 µM and the “TGI SK-BR-3” value (SK-BR-3) was 9.69E−06. For the same molecule, the GI50 (IGROV-1) was 3.55 µM, the CC50 (IGROV-1) was 25.9 µM and the “TGI IGROV” value (IGROV-1) was 9.60E−06. The GI50 (IGROV-ET) was 3.87 µM, the CC50 (IGROV-ET) was 26.7 µM and the “TGI IGROV-ET” value (IGROV-ET) was 1.10E−05. For the same molecule, the GI50 (SK-OV-3) was 2.05 µM, the CC50 (SK-OV-3) was 21.8 µM and the “TGI SKOV-3” value (SK-OV-3) was 6.88E−06. For the same molecule, the GI50 (PANC-1) was 3.07 µM, the CC50 (PANC-1) was 24.6 µM and the “TGI PANC-1” value (PANC-1) was 8.70E−06. The CC50 at 48 h [1] was 0.603 µM, the GI50 (HMEC1) was 0.00108 µM and the “TGI H-MEC-1” value (HMEC1) was 1.53E−08.
